Laboratory results published in the supplement of paper PMC10307832.

Columns and labels:
Assay in all cases: relative viability (nuclei count vs DMSO), 5 days (fraction); higher = more cells survive
Motesanib + Lapatinib = compound: CC1(C)CNc2cc(NC(=O)c3cccnc3NCc3ccncc3)ccc21 [Motesanib] + CS(=O)(=O)CCNCc1ccc(-c2ccc3ncnc(Nc4ccc(OCc5cccc(F)c5)c(Cl)c4)c3c2)o1 [Lapatinib] (partner 2 µM)
Outline: (§1)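 Medians of duplicate plates are given as relative viability. That measure is the nuclei count in treated wells divided by the count in vehicle wells. Counts were taken on 4× images of lung cancer cell lines in 1536-well plates, 5 days after pin-tool dosing the day after seeding with one drug alone or a fixed anchor-drug dose plus five library-drug doses (not always all listed) in √10 steps.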

Motesanib + Pictilisib = compound: CC1(C)CNc2cc(NC(=O)c3cccnc3NCc3ccncc3)ccc21 [Motesanib] + CS(=O)(=O)N1CCN(Cc2cc3nc(-c4cccc5[nH]ncc45)nc(N4CCOCC4)c3s2)CC1 [Pictilisib] (partner 1 µM)
Outline: as §1

[1] = compound: C[C@@]1(C(=O)Nc2ccc(F)nc2)CCCN1c1nc(Nc2cc(C3CC3)n[nH]2)c2cccn2n1 + CS(=O)(=O)CCNCc1ccc(-c2ccc3ncnc(Nc4ccc(OCc5cccc(F)c5)c(Cl)c4)c3c2)o1 [Lapatinib] (partner 2 µM)
Outline: as §1

[2] = compound: C[C@@]1(C(=O)Nc2ccc(F)nc2)CCCN1c1nc(Nc2cc(C3CC3)n[nH]2)c2cccn2n1 + Cc1nc(NC(=O)N2CCC[C@H]2C(N)=O)sc1-c1ccnc(C(C)(C)C(F)(F)F)c1 [Alpelisib] (partner 2 µM)
Outline: as §1

For NCI-H2009, the relative viability (Motesanib + Lapatinib; first compound 0.01 µM) was 1.08, the relative viability (Motesanib + Lapatinib; first compound 0.03162 µM) was 0.927 and the relative viability (Motesanib + Lapatinib; first compound 0.1 µM) was 0.962. For the same cell line, the relative viability (Motesanib + Lapatinib; first compound 0.3162 µM) was 1.36, the relative viability (Motesanib + Lapatinib; first compound 1 µM) was 0.898 and the relative viability (Motesanib + Pictilisib; first compound 0.01 µM) was 0.734. The relative viability (Motesanib + Pictilisib; first compound 0.03162 µM) was 0.732, the relative viability (Motesanib + Pictilisib; first compound 0.1 µM) was 0.818 and the relative viability (Motesanib + Pictilisib; first compound 0.3162 µM) was 0.827. It also gave a relative viability (Motesanib + Pictilisib; first compound 1 µM) of 0.873, a relative viability ([1]; first compound 0.04 µM) of 1.04 and a relative viability ([1]; first compound 0.1265 µM) of 1.02. The relative viability ([1]; first compound 0.4 µM) was 0.856, the relative viability ([1]; first compound 1.265 µM) was 0.607 and the relative viability ([2]; first compound 0.04 µM) was 1.17. For the same cell line, the relative viability ([2]; first compound 0.1265 µM) was 1.24, the relative viability ([2]; first compound 0.4 µM) was 1.12 and the relative viability ([2]; first compound 1.265 µM) was 1.22.
